Experimental data reported in paper PMC6934184, “Selective DNA-PKcs inhibition extends the therapeutic index of localized radiotherapy and chemotherapy” (The Journal of Clinical Investigation, 2019).

Biological target: T1, CDK1/cyclin B (Homo sapiens, UniProt P06493)
T1 construct: purchased Thermo Fisher Scientific (Life Technologies) SelectScreen
Assay: SelectScreen Z'LYTE
Assay type: biochemical
Summary of the method: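 Percent values come from Thermo SelectScreen profiling of NU5455, combining activity and binding assays. CSF1R was run in Z'LYTE format at Km app ATP, and CAMK1 in Adapta format with ATP listed at 10.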

T1 sequence (P06493 whole entry): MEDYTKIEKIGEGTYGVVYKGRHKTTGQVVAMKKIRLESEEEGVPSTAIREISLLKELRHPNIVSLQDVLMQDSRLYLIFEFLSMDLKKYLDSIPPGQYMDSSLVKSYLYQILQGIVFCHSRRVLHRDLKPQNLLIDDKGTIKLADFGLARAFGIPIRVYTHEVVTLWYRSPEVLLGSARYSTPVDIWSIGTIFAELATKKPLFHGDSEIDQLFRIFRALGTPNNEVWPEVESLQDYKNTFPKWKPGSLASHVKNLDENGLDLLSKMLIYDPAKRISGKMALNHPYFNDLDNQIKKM
T1 sequence (P14635 whole entry partner): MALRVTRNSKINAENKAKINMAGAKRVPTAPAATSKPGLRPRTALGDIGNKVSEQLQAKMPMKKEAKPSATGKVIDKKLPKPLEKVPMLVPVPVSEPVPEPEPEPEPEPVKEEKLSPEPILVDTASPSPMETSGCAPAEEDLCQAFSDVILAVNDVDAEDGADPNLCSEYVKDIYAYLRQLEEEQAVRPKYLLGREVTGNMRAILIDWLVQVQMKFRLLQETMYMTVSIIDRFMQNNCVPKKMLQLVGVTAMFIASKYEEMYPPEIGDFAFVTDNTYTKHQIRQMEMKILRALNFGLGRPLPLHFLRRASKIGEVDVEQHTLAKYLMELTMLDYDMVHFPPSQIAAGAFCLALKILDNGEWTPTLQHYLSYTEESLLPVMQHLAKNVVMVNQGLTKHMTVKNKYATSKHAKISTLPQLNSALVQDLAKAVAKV

CN(C(=O)CN1CCOCC1)c1ccc2sc3c(-c4cccc5c(=O)cc(N6CC7CCC(C6)O7)oc45)cccc3c2c1 [NU5455]
inhibition at 1 µM: 1.6%
